Data: patent US20250188092A1, “RIFAMYCIN ANALOGS” (THE REGENTS OF THE UNIVERSITY OF MICHIGAN, priority 2021, published 2025)
≈ marks a conversion by molar mass, not a printed value.

Columns and labels:
DPX2 cells = details: for DPX2 Viability @ 6.25 μM: 24 h; for DPX2 Viability @ 25 μM: human
MTB H37Rv ATCC 27294 = assay: MIC, microplate Alamar Blue assay (MABA); assay type: cell-based, Mycobacterium tuberculosis; details: for MIC90: Mycobacterium tuberculosis, MTB H37Rv ATCC 27294, microplate Alamar Blue assay, lowest concentration giving ≥90% reduction in fluorescence

Row | Compound | DPX2 Viability @ 6.25 μM (DPX2 cells) | DPX2 Viability @ 25 μM (DPX2 cells) | MIC90 MABA Rel to RMP (MTB H37Rv ATCC 27294) | MIC90 (MTB H37Rv ATCC 27294)
1 | CO[C@H]1/C=C/O[C@@]2(C)Oc3c(C)c(O)c4c(=O)c(c5oc6cc(N7CCN(CC(C)C)CC7)cc(N7CCN(CC(C)C)CC7)c6nc-5c4c3C2=O)NC(=O)/C(C)=C\C=C\[C@H](C)[C@H](O)[C@@H](C)[C@@H](O)[C@@H](C)[C@H](OC(C)=O)[C@@H]1C [Compound 17u, 7S,9E,11S,12R,13S,14R,15R,16R,17S,18S,19E,21Z)-2,15,17-trihydroxy-11-methoxy-3,7,12,14,16,18,22-heptamethyl-30,32-bis[4-(2-methylpropyl)piperazin-1-yl]-6,23,37-trioxo-8,27,38-trioxa-24,34-diazahexacyclo[23.11.1.1^4,7.0^5,36.0^26,35.0^28,33]octatriaconta-1,3,5(36)9,19,21,25,28,30,32,34-undecaen-13-yl acetate] | 106% | 90% | – | –
2 | CCOC(=O)N1CCN(c2cc(C)c3nc4c5c6c7c(C)c(O)c5c(=O)c(c-4oc3c2)NC(=O)/C(C)=C\C=C\[C@H](C)[C@H](O)[C@@H](C)[C@@H](O)[C@@H](C)[C@H](OC(C)=O)[C@H](C)[C@@H](OC)/C=C/O[C@@](C)(O7)C6=O)CC1 [Compound 26h, Ethyl 4-[(7S,9E,11S,12R,13S,14R,15R,16R,17S,18S,19E,21Z)-13-(acetyloxy)-2,15,17-trihydroxy-11-methoxy-3,7,12,14,16,18,22,32-octamethyl-6,23,37-trioxo-8,27,38-trioxa-24,34-diazahexacyclo[23.11.1.1^4,7.0^5,36.0^26,35.0^28,33]octatriaconta-1(36)2,4,9,19,21,25,28,30,32,34-undecaen-30-yl]piperazine-1-carboxylate] | 118% | 110% | 0.18 | 4.9 nM (≈ 4.68 ng/mL)
3 | CO[C@H]1/C=C/O[C@@]2(C)Oc3c(C)c(O)c4c(=O)c(c5oc6cc(N7CCN(C(=O)OC(C)(C)C)CC7)cc(C)c6nc-5c4c3C2=O)NC(=O)/C(C)=C\C=C\[C@H](C)[C@H](O)[C@@H](C)[C@@H](O)[C@@H](C)[C@H](OC(C)=O)[C@@H]1C [Compound 26i, tert-Butyl 4-[(7S,9E,11S,12R,13S,14R,15R,16R,17S,18S,19E,21Z)-13-(acetyloxy)-2,15,17-trihydroxy-11-methoxy-3,7,12,14,16,18,22,32-octamethyl-6,23,37-trioxo-8,27,38-trioxa-24,34-diazahexacyclo[23.11.1.1^4,7.0^5,36.0^26,35.0^28,33]octatriaconta-1(36)2,4,9,19,21,25,28,30,32,34-undecaen-30-yl]piperazine-1-carboxylate] | 120% | 102% | 0.17 | 4.7 nM (≈ 4.62 ng/mL)
4 | CO[C@H]1/C=C/O[C@@]2(C)Oc3c(C)c(O)c4c(=O)c(c5oc6cc(N7CCN(CCCCCCO[C@@H]8COc9nc([N+](=O)[O-])cn9C8)CC7)cc(C)c6nc-5c4c3C2=O)NC(=O)/C(C)=C\C=C\[C@H](C)[C@H](O)[C@@H](C)[C@@H](O)[C@@H](C)[C@H](OC(C)=O)[C@@H]1C [Compound 29e, (7S,9E,11S,12R,13S,14R,15R,16R,17S,18S,19E,21Z)-2,15,17-Trihydroxy-11-methoxy-3,7,12,14,16,18,22,32-octamethyl-30-[4-(6-{[(6S)-2-nitro-5H,6H,7H-imidazo[2,1-b][1,3]oxazin-6-yl]oxy}hexyl)piperazin-1-yl]-6,23,37-trioxo-8,27,38-trioxa-24,34-diazahexacyclo[23.11.1.1^4,7.0^5,36.0^26,35.0^28,33]octatriaconta-1(36)2,4,9,19,21,25,28,30,32,34-undecaen-13-yl acetate] | 112% | 99% | 0.07 | 2 nM
5 | CCC(=O)N1CCN(c2cc(C)c3nc4c5c6c7c(C)c(O)c5c(=O)c(c-4oc3c2)NC(=O)/C(C)=C\C=C\[C@H](C)[C@H](O)[C@@H](C)[C@@H](O)[C@@H](C)[C@H](OC(C)=O)[C@H](C)[C@@H](OC)/C=C/O[C@@](C)(O7)C6=O)CC1 [Compound 26e, (7S,9E,11S,12R,13S,14R,15R,16R,17S,18S,19E,21Z)-2,15,17-Trihydroxy-11-methoxy-3,7,12,14,16,18,22,32-octamethyl-6,23,37-trioxo-30-(4-propanoylpiperazin-1-yl)-8,27,38-trioxa-24,34-diazahexacyclo[23.11.1.1^4,7.0^5,36.0^26,35.0^28,33]octatriaconta-1(36)2,4,9,19,21,25,28,30,32,34-undecaen-13-yl acetate] | 101% | 97% | 0.35 | 9.4 nM
6 | CO[C@H]1/C=C/O[C@@]2(C)Oc3c(C)c(O)c4c(=O)c(c5oc6cc(N7CCN(CCn8ccnc8)CC7)cc(C)c6nc-5c4c3C2=O)NC(=O)/C(C)=C\C=C\[C@H](C)[C@H](O)[C@@H](C)[C@@H](O)[C@@H](C)[C@H](OC(C)=O)[C@@H]1C [Compound 26c, (7S,9E,11S,12R,13S,14R,15R,16R,17S,18S,19E,21Z)-2,15,17-trihydroxy-30-{4-[2-(1H-imidazol-1-yl)ethyl]piperazin-1-yl}-11-methoxy-3,7,12,14,16,18,22,32-octamethyl-6,23,37-trioxo-8,27,38-trioxa-24,34-diazahexacyclo[23.11.1.1^4,7.0^5,36.0^26,35.0^28,33]octatriaconta-1(36)2,4,9,19,21,25,28,30,32,34-undecaen-13-yl acetate] | 108% | 96% | – | –
7 | CO[C@H]1/C=C/O[C@@]2(C)Oc3c(C)c(O)c4c(=O)c(c5oc6cc(N7CCN(C(C)=O)CC7)cc(C)c6nc-5c4c3C2=O)NC(=O)/C(C)=C\C=C\[C@H](C)[C@H](O)[C@@H](C)[C@@H](O)[C@@H](C)[C@H](OC(C)=O)[C@@H]1C [Compound 26d, (7S,9E,11S,12R,13S,14R,15R,16R,17S,18S,19E,21Z)-30-(4-Acetylpiperazin-1-yl)-2,15,17-trihydroxy-11-methoxy-3,7,12,14,16,18,22,32-octamethyl-6,23,37-trioxo-8,27,38-trioxa-24,34-diazahexacyclo[23.11.1.1^4,7.0^5,36.0^26,35.0^28,33]octatriaconta-1(36)2,4,9,19,21,25,28,30,32,34-undecaen-13-yl acetate] | 106% | 88% | 0.35 | 9.4 nM
